Measurements taken from US11192893B2, “Pyrazoloquinazolinone antitumor agents” (The Rockefeller University, priority 2017, dated 2021).
Like-named read-outs stand apart in the source and are kept apart here.

Tests used:
[1] = biological target: human cytoplasmic dynein 2 (Homo sapiens (Human), UniProt Q8NCM8); experiment: microtubule gliding assay with GFP-dynein 2; assay type: biochemical; conditions: for Gliding velocity: dynein 2-driven microtubule gliding, test compounds at 20 pM (so in the source), 0.05 mg/mL casein, 2% DMSO, solvent control 126 ± 17; for Gliding velocity / IC50: 1 mM MgATP; for IC50: Table 1, dose-dependent analysis of dynein 2-driven microtubule gliding
Protocol: Compounds were tested employing a microtubule gliding assay, a standard biochemical assay for motor proteins. […] We purified an N-terminally GFP-tagged motor-domain construct of dynein 2 using an insect cell expression system [Schmidt et al., Nature. 2015; 518(7539):435-8]. The GFP tag in this construct allowed immobilization on passivated glass coverslips used in microtubule gliding assays. GFP-dynein 2, in the presence of ATP (1 mM), moved microtubules with a velocity of 128±14 nm/s. The mean velocity of dynein 2-driven microtubule gliding in the presence of control solvent (2% DMSO) and test compounds at 20 pM were compared. All motility assays were run at 1 mM MgATP, 0.05 mg/mL casein, and 2% DMSO. Representative examples of compounds of the invention provided the results shown as “Gliding velocity in nm/s” in Table 1. For some compounds, dose-dependent analyses were performed, and the results are shown as “IC50 in μM” in Table 1.
Microtubule surface gliding assay. Cytoplasmic dynein was purified from bovine brains as described by Bingham et al. [Methods Enzymol. 298, 171 (1998)]. K560, a 560-amino acid N-terminal fragment of human conventional kinesin (kinesin-1) with a C-terminal His-tag, was expressed in bacteria and purifed as described by Woehlke et al., [Cell 90, 207 (1997)]. Motility assays were performed on a Zeiss Axiovert 200M wide-field microscope equipped with a Zeiss 100×/1.45 NA α-Plan-Fluar objective. Data were captured with an EM-CCD camera (iXon DU-897, Andor Technology) with a 0.3-second exposure time and frame rate of 0.5 second^−1. Microtubule gliding assays were performed as described by Kapoor and Mitchison [Proc. Natl. Acad. Sci. U.S.A 96, 9106 (1999)] with some modifications. An approximately 6-μL flow chamber was filled with motor protein (100 μg/mL dynein or 50 μg/mL K560) in motor dilution buffer (80 mM Pipes, 1 mM EGTA, 2 mM MgCl2, 2 mM DTT, 50 μM ATP, pH 6.8 with KOH). After a 2-minute incubation, excess protein was washed out with 20 μL of PEM80 buffer (80 mM Pipes, 1 mM EGTA, 2 mM MgCl2, pH 6.8 with KOH) and the surface was blocked against non-specific microtubule binding by filling the chamber with blocking protein (0.5 mg/mL α-casein for dynein experiments and 1 mg/mL BSA for K560 experiments) in motor dilution buffer. After 2 minutes the chamber was perfused with 18 μL of reaction mix (PEM80, 40 mM KC 1, blocking protein [1 mg/mL α-casein for dynein experiments; 1 mg/mL BSA for K560 experiments], 2 mM MgATP, 20 μM taxol, 0.1 μM rhodamine-labeled microtubules, oxygen depletion system [4 mM DTT, 2 mM glucose, 40 μg/mL glucose oxidase, 35 μg/mL catalase], 2.5% DMSO, and test compounds as appropriate). The flow chamber was then sealed with valap. After allowing the microtubules to bind to the surface for 5 minutes, the gliding microtubules were visualized by time-lapse fluorescence microscopy. Velocities were measured by kymography using Metamorph software (Molecular Devices), and the velocity for each microtubule was determined from the total distance during the time observed.
For washout experiments, the chamber was left unsealed after the initial reaction mix containing inhibitor was added. Microtubules were allowed to bind to the surface for 5 minutes, and then a time-lapse movie was acquired. The inhibitor was then washed out of the chamber by flowing in 20 μL of fresh reaction mix (PEM80, 40 mM KCl, 1 mg/mL α-casein, 2 mM MgATP, 20 μM taxol, oxygen depletion system, and 2.5% DMSO) without additional microtubules or inhibitor. The chamber was sealed, and additional time-lapse movies were acquired.

[2] = test system: Hedgehog pathway activity; experiment: Shh-Light luciferase reporter assay of Hedgehog pathway activity (Shh-Light2 cells, SAG-stimulated); assay type: cell-based; conditions: for activity at 20 µM: 20 μM compound, read-out: SHH-light % residual @ 20 μM; for activity at 2 µM: 2 μM compound, read-out: SHH-light % residual @ 2 μM
Protocol: To examine the inhibition of dynein 2 in cell-based assays, an established luciferase reporter-based cellular assay of Hedgehog pathway activity was employed [Taipale et al., Nature. 2000; 406(6799): 1005-9]. Signaling in this pathway depends on the function of dynein 2. In this setting, expression of luciferase driven by Hedgehog pathway activity was inhibited by compound 5 with an IC50 value of 0.9±0.5 μM. […] The potencies of these compounds in this cell-based assay match the rank-order of dynein 2 inhibition in vitro. In these assays, Hedgehog pathway activity was stimulated using the Synthetic Agonist of Smoothened (SAG). This compound competes with many Hedgehog pathway inhibitors for binding to Smoothened, a key node in the signaling pathway.
SHH-Light Assay (Steinman et al. eLife 2017; 6:e25174.)
NIH-3T3 cells stably expressing a luciferase reporter downstream of a Gli binding site (Shh-Light2 cells, RRID: CVCL_2721) were maintained in DMEM with 10% bovine calf serum (BCS). Cells were seeded at a density of 30,000 cells/well in 96-well tissue culture-treated plates (Corning, cat #353072) in 100 μL in DMEM+10% BCS, and incubated for 48 hr (Taipale et al., 2000). Wells were washed briefly with PBS. Next […] of low serum media (DMEM+0.5% BCS) containing smoothened agonist (SAG, 500 nM), and either solvent control (0.2% DMSO) or test compound (serial three-fold dilutions of each inhibitor starting from 20 μM) were added to the wells. After 28-32 hr of inhibitor treatment, cells were washed with 50 μL PBS and lysed for >30 min in 30 μL Passive Lysis Buffer (Promega Dual Luciferase kit, cat E1910). 5 uL of each lysate was transferred to white, solid-bottom 96-well plates (Greiner, cat #655075), followed by rapid addition (within 30 s) of 30 μL of Luciferase Assay Reagent using a multichannel pipette. Luminescence for each condition was read using a Synergy Neo plate reader (5 s integration time per well). Cell line identity was confirmed by measurement of the degree of response to Hedgehog pathway stimulation by the synthetic agonist SAG and using previously published values from our groups and others as references (Firestone et al., 2012; Hyman et al., 2009).

human dynein 1 = human dynein 1 (Homo sapiens (Human), UniProt Q14204); experiment: microtubule gliding assay with GFP-dynein 1; assay type: biochemical; conditions: washout
Excerpt: To examine the inhibition of dynein 1 by compound 5 in vitro we generated recombinant human protein. We expressed and purified a GFP-tagged human dynein 1 (AA 1320-'16'16) construct similar to the one we used for GFP dynein 2. […] GFP-dynein 1 moves microtubules at 510±60 nm/s, a velocity expected based on studies of other mammalian dynein 1 homologs (n=7).
Microtubule surface gliding assay. Cytoplasmic dynein was purified from bovine brains as described by Bingham et al. [Methods Enzymol. 298, 171 (1998)]. K560, a 560-amino acid N-terminal fragment of human conventional kinesin (kinesin-1) with a C-terminal His-tag, was expressed in bacteria and purifed as described by Woehlke et al., [Cell 90, 207 (1997)]. Motility assays were performed on a Zeiss Axiovert 200M wide-field microscope equipped with a Zeiss 100×/1.45 NA α-Plan-Fluar objective. Data were captured with an EM-CCD camera (iXon DU-897, Andor Technology) with a 0.3-second exposure time and frame rate of 0.5 second^−1. […] After allowing the microtubules to bind to the surface for 5 minutes, the gliding microtubules were visualized by time-lapse fluorescence microscopy. Velocities were measured by kymography using Metamorph software (Molecular Devices), and the velocity for each microtubule was determined from the total distance during the time observed. […]

[3] = test system: dynein 1 construct with a mutation in the AAA3 domain (Walker A residue); experiment: ATPase activity of dynein 1 construct with AAA3 mutation; assay type: biochemical
Excerpt: ATPase activity at AAA1 is linked to individual steps of the motor, while the AAA3 site plays a regulatory role. Two lines of evidence indicate that compounds of the invention target the AAA1 site specifically. First, compound 5 inhibits the activity of a dynein 1 construct with a mutation in the AAA3 domain (Walker A residue). In this construct, the ATPase activity is expected to be mainly due to the AAA1 site. Second, the potency of inhibition of the AAA3 mutant is similar to that of the microtubule-stimulated ATPase rate. Sequence comparisons indicate that the AAA1 sites in dynein 1 and 2 are highly conserved, while the other AAA sites are less conserved. In fact, the residues within 4 Å of the bound nucleotide in AAA1 are identical between dynein 1 and 2.

basal cell carcinoma = conditions: 33 human patients; cited from earlier work
medulloblastoma = conditions: human patient; cited from earlier work
[4] = SAG 500 nM, read-out: IC50, luciferase expression driven by Hedgehog pathway activity
[5] = Table 2, SAG 500 nM, 28-32 hr treatment, read-out: Shh-light IC50

human cytoplasmic dynein 2, sequence (Q8NCM8 1091-4307 limits assumed): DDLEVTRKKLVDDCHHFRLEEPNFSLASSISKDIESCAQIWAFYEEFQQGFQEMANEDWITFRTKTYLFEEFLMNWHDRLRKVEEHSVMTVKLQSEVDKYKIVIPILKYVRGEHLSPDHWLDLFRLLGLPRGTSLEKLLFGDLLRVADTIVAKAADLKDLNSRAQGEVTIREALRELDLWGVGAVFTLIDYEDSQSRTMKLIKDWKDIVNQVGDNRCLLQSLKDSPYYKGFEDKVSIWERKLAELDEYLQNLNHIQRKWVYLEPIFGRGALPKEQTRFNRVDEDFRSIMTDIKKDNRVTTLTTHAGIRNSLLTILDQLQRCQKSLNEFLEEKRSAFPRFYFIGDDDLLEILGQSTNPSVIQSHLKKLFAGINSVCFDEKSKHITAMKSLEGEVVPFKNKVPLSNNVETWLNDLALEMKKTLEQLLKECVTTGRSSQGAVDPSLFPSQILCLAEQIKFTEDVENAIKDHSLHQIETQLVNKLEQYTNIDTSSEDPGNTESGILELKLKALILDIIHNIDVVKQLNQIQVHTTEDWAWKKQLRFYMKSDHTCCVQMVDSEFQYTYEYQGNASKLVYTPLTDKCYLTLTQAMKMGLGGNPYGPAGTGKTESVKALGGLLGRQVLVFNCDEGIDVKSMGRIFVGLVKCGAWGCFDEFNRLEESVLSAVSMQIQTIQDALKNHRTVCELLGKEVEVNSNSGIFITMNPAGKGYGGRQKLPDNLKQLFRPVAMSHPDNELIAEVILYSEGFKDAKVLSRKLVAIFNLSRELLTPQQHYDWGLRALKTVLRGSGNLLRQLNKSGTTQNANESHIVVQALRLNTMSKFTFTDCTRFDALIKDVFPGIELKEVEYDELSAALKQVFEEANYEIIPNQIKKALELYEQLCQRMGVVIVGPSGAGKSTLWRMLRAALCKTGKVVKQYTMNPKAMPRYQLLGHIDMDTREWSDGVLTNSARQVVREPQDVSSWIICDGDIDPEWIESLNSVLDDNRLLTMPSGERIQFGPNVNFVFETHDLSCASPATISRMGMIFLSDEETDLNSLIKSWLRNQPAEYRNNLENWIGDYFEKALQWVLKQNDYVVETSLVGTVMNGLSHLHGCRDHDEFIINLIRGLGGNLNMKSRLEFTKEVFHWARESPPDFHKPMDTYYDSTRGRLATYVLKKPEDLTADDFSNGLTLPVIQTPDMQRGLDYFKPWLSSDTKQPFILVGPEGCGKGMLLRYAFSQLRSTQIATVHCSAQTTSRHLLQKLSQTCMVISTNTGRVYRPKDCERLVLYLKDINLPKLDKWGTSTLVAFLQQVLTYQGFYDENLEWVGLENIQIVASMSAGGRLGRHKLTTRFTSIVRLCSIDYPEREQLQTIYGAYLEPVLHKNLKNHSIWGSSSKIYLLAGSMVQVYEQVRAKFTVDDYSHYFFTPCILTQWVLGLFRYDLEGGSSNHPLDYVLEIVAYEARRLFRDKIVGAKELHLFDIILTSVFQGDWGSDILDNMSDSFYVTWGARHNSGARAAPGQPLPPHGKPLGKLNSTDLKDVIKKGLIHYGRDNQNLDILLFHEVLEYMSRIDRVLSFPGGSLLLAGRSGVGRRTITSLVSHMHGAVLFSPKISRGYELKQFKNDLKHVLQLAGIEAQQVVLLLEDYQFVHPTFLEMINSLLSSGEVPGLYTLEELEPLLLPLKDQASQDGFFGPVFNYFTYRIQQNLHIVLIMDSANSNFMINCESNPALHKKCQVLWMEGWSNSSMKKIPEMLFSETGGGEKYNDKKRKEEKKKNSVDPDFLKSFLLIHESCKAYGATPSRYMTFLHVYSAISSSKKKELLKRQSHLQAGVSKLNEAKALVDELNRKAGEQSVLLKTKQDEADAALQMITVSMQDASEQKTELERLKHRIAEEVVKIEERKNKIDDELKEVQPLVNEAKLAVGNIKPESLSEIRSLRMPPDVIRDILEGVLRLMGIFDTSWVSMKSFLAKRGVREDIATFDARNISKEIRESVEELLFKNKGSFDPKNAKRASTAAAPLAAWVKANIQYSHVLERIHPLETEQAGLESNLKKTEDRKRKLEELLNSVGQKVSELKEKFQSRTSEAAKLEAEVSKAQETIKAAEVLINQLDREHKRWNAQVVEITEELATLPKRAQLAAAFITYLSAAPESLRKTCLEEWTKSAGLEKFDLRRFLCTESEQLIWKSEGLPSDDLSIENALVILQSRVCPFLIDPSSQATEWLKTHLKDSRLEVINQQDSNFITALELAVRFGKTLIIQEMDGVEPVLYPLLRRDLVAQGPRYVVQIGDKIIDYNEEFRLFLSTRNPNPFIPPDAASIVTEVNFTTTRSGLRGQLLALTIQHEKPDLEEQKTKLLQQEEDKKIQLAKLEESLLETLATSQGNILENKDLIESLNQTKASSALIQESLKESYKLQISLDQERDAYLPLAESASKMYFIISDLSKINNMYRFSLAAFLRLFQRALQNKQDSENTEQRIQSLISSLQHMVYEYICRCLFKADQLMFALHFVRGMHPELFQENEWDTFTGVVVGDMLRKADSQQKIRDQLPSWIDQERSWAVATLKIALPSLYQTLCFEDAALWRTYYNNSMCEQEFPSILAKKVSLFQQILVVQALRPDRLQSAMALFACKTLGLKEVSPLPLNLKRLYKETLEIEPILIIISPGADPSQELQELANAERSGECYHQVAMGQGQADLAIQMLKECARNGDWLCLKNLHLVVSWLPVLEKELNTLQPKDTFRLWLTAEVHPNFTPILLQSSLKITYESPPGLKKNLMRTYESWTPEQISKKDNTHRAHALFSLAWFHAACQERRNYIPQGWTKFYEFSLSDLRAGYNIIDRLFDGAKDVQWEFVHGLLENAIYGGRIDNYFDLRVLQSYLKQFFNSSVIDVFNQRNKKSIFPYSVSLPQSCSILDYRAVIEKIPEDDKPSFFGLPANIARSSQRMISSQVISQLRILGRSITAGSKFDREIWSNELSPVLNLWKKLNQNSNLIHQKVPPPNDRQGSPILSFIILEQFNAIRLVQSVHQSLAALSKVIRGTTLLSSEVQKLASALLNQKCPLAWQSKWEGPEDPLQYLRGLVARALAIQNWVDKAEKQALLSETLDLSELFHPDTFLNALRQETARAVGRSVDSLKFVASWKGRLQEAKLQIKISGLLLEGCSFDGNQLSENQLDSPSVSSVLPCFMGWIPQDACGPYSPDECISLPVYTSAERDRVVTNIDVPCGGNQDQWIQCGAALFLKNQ

Compound	Gliding velocity [1]	activity at 20 µM ([2]; SAG 500 nM)	IC50 [1]	activity at 2 µM ([2]; SAG 500 nM)	IC50 [2, 5]	other results
O=c1[nH]c2cc(-c3ccc(Cl)cc3Cl)nn2c2ccccc12 [Example 1, 2-(2,4-dichlorophenyl)-4H-pyrazolo[1,5-a]quinazolin-5-one]	83 ± 10 nm/s	–	–	–	–	–
N#Cc1c(-c2ccc(Cl)cc2Cl)nn2c1[nH]c(=O)c1ccccc12 [Example 2, 2-(2,4-dichlorophenyl)-5-oxo-4H-pyrazolo[1,5-a]quinazoline-3-carbonitrile]	83 ± 10 nm/s	19.1%	–	–	–	IC50 [2, 4]: 5200 ± 5000 nM
N#Cc1c(C2(c3ccc(Cl)cc3)CC2)nn2c1[nH]c(=O)c1ccccc12 [Example 3, 2-[1-(4-chlorophenyl)cyclopropyl]-5-oxo-4H-pyrazolo[1,5-a]quinazoline-3-carbonitrile]	58 ± 14 nm/s	–	–	–	–	–
N#Cc1c(C2(c3ccc(Cl)cc3)CC2)nn2c1[nH]c(=O)c1cc(C(F)(F)F)ccc12 [Example 4, 2-(1-(4-chlorophenyl)cyclopropyl)-5-oxo-7-(trifluoromethyl)-4,5-dihydropyrazolo[1,5-a]quinazoline-3-carbonitrile]	6 ± 2 nm/s	-4.4%	3300 ± 200 nM	41.8%	–	–
N#Cc1c(C2(c3ccc(Cl)cc3)CC2)nn2c1[nH]c(=O)c1cc(I)ccc12 [Example 5, 2-[1-(4-chlorophenyl)cyclopropyl]-7-iodo-5-oxo-4H-pyrazolo[1,5-a]quinazoline-3-carbonitrile]	6 ± 2 nm/s	-5.2%	2600 ± 1300 nM	24.8%	1450 nM	reversibility of inhibition of dynein 2-dependent motility ([1]; washout): reversed following washout; reversibility of inhibition of dynein 1-dependent microtubule gliding (human dynein 1): reversed following washout; IC50 [2, 4]: 900 ± 500 nM; inhibition of ATPase activity of AAA3 mutant dynein 1 [3]: inhibits
N#Cc1c(C2(c3ccc(Cl)cc3)CC2)nn2c(=O)c3cc(Br)ccc3[nH]c12 [Example 12, 7-Bromo-2-[1-(4-chlorophenyl)cyclopropyl]-9-oxo-4H-pyrazolo[5,1-b]quinazoline-3-carbonitrile]	–	-1.9%	290 nM	-3.1%	290 nM	–
N#Cc1c(C2CCC(c3ccc(Cl)cc3)CC2)nn2c(=O)c3ccccc3[nH]c12 (stereo not drawn) [Example 27, 2-[4-(4-Chlorophenyl)cyclohexyl]-9-oxo-4H-pyrazolo[5,1-b]quinazoline-3-carbonitrile]	–	-1.5%	620 nM	27.3%	600 nM	–
N#Cc1c(CCCOc2ccc(Cl)cc2)nn2c(=O)c3ccccc3[nH]c12 [Example 29, 2-[3-(4-Chlorophenoxy)propyl]-9-oxo-4H-pyrazolo[5,1-b]quinazoline-3-carbonitrile]	–	3.8%	730 nM	33.5%	680 nM	–
N#Cc1c(C2(c3ccc(Cl)cc3)CC2)nn2c(=O)c3ccccc3[nH]c12 [Example 31, 2-[1-(4-Chlorophenyl)cyclopropyl]-9-oxo-4H-pyrazolo[5,1-b]quinazoline-3-carbonitrile]	–	-1.6%	710 nM	30.4%	660 nM	–
CS(=O)(=O)c1ccc(C(=O)Nc2ccc(Cl)c(-c3ccccn3)c2)c(Cl)c1 [GDC-0449]	–	–	–	–	–	clinical response, basal cell carcinoma (basal cell carcinoma): clinically significant response; clinical response, medulloblastoma (medulloblastoma): regression of medulloblastoma
